Key:
[1] = main metabolites in man, present in plasma and urine; cited from earlier work
[2] = biological target: dopamine D3 receptor (D3R) (Homo sapiens, UniProt P35462); conditions: antagonist; cited from earlier work
rat stomachs = assay: Gastric emptying in the rat model (phenol red method); format: in vivo, Male Wistar rats; conditions: mean ± SEM
Protocol: This study aimed to investigate the prokinetic effects of Mesdopetam, a dopamine receptor antagonist, on rat stomachs by assessing gastric emptying at three different doses: 1.24 mg/kg, 2.48 mg/kg, and 3.72 mg/kg. Male Wistar rats were used as the animal model. Gastric emptying time was measured at specific time intervals post-administration, and the results were compared to determine the impact of Mesdopetam on gastric motility.
• Animal Model: Male Wistar rats (250-300 g) were used for the study. • Drug Administration: Mesdopetam was administered orally to rats at three different doses: 1.24 mg/kg, 2.48 mg/kg, and 3.72 mg/kg. The control group received a placebo. • Experimental Groups: Rats were divided into four groups: control (receiving placebo) and three treatment groups (receiving Mesdopetam at the respective doses). • Measurement of Gastric Emptying: Gastric emptying time was measured using a non-invasive method, such as the phenol red method. Rats were fasted overnight before the experiment, and the drug was administered following the fasting period. • Data Collection: Gastric emptying time was recorded at specific time points post-treatment: 1 hour, 2 hours, 4 hours, and 8 hours. • Statistical Analysis: The data were analyzed using appropriate statistical tests (e.g., one-way ANOVA followed by post hoc tests) to determine significant differences in gastric emptying time between the control and treatment groups at each dose level.
The results of the study are presented as mean gastric emptying time (in minutes) for each group at different time points post-treatment: […]

[3] = cited from earlier work

Sequence of dopamine D3 receptor (D3R) (P35462 whole entry): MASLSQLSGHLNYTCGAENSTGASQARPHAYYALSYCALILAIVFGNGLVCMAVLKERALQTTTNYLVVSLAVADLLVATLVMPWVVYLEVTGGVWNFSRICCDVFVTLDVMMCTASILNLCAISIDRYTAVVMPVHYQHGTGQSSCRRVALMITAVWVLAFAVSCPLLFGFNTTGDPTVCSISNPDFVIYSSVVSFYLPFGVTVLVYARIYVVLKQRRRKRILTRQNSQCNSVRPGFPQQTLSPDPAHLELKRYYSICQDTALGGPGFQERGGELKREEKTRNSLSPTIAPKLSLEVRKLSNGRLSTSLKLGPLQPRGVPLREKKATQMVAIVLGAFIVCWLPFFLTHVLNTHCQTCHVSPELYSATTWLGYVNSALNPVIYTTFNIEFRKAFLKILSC

CS(=O)(=O)c1cc(F)cc(OCCN)c1 [M1]
pharmacological activity of metabolite [1]: pharmacologically inactive

CC(=O)NCCOc1cc(F)cc(S(C)(=O)=O)c1 [M2]
pharmacological activity of metabolite [1]: pharmacologically inactive

CCCNCCOc1cc(F)cc(S(C)(=O)=O)c1 [Mesdopetam, [2-(3-fluoro-5-methylsulfonylphenoxy)ethyl]propan-1-amine]
Ki [2]: ~90 nM
mean gastric emptying time (rat stomachs; 1.24 mg/kg oral, 1 hour post-treatment): 38.5 ± 1.8 min
mean gastric emptying time (rat stomachs; 1.24 mg/kg oral, 2 hours post-treatment): 32.4 ± 1.5 min
mean gastric emptying time (rat stomachs; 1.24 mg/kg oral, 4 hours post-treatment): 27.9 ± 1.3 min
mean gastric emptying time (rat stomachs; 1.24 mg/kg oral, 8 hours post-treatment): 24.6 ± 1.1 min
mean gastric emptying time (rat stomachs; 2.48 mg/kg oral, 1 hour post-treatment): 32.1 ± 1.6 min
mean gastric emptying time (rat stomachs; 2.48 mg/kg oral, 2 hours post-treatment): 26.9 ± 1.4 min
mean gastric emptying time (rat stomachs; 2.48 mg/kg oral, 4 hours post-treatment): 23.4 ± 1.2 min
mean gastric emptying time (rat stomachs; 2.48 mg/kg oral, 8 hours post-treatment): 19.8 ± 1.0 min
mean gastric emptying time (rat stomachs; 3.72 mg/kg oral, 1 hour post-treatment): 29.6 ± 1.4 min
mean gastric emptying time (rat stomachs; 3.72 mg/kg oral, 2 hours post-treatment): 23.8 ± 1.2 min
mean gastric emptying time (rat stomachs; 3.72 mg/kg oral, 4 hours post-treatment): 20.3 ± 1.0 min
mean gastric emptying time (rat stomachs; 3.72 mg/kg oral, 8 hours post-treatment): 17.5 ± 0.9 min

CCN(CC)CCNC(=O)c1cc(Cl)c(N)cc1OC [metoclopramide]
incidence of extrapyramidal reactions ([3]; aged and young patients): ≤ 25%
reported incidence of extrapyramidal reactions ([3]; overall): 0.2%
